From US10947252B2, “Inhibitors of KEAP1-Nrf2 protein-protein interaction” (Janssen Pharmaceutica NV, priority 2018, dated 2021)

Test system: Glo-Response ARE-luc2P HEK293 cell line
Test: ARE luciferase reporter cell-based assay;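 also: luciferase signal tracks Nrf2 activation of the ARE once compounds disrupt KEAP1-Nrf2 binding, read with One-Glo reagent, DMSO serving as low control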
Conditions: Homo sapiens, HEK293, 24 h, average of results obtained
Protocol: The ARE assay utilizes a luciferase reporter cell line where the signal is proportional to NrF2 activation of the ARE. The cell line is commercially available from Promega and was prepared by stably transfecting HEK293 cells with a vector (pGL4.11) which contains the ARE response element upstream of a minimal promoter. The promoter drives expression of luc2 firefly luciferase gene. Upon disruption of KEAP1-Nrf2 binding by compound, Nrf2 translocates into the nucleus where it binds to the ARE and activates transcription of luciferase.
The materials used in this ARE assay are as follows: Glo-Response ARE-luc2P HEK293 cell line and One-Glo Luciferase Assay System were purchased from Promega (Madison, Wis.). Dulbecco's Modified Eagle medium ((DMEM), low glucose, GlutaMAX, pyruvate), fetal bovine serum (certified, heat inactivated), hygromycin B, Dulbecco's phosphate-buffered saline were purchased from Life Technologies (Grand Island, N.Y.). Penicillin, streptomycin solution (100×) and 0.05% trypsin-EDTA were purchased from Corning (Manassas, Va.). DMSO was purchased from EMD Millipore.
The ARE assay protocol is as follows: cells were maintained in growth medium (DMEM+10% FBS, 200 μg/mL hygromycin B, p-s) between 20-90% confluency by splitting twice per week. One day before the assay, cells were trypsinized, counted to determine viable cell count, and re-suspended in assay medium (DMEM+10% FBS, p-s) at 250,000 cells/mL. […] 100% DMSO was used as the low control. A 11-point dose series of the control compound was included on every plate. Compounds were spotted to an intermediate plate (Greiner #781280 V-bottom 384 well plate) using the Echo acoustic dispenser (Labscyte San Jose, Calif.). Spot size was 240 nL.
On the day of the assay, 60 mL per well of assay medium was added to the pre-spotted plate to make 2× compound stocks using the Combi (Thermo Waltham, Mass.). Compound and medium were mixed on the Janus and 20 mL of 2×compound stock was added to the cell plate which already contained 20 mL of assay medium from cell plating. […] The plates were returned to the tissue culture incubator for 24 hours.
The next day, luciferase activity was measured according to the manufacturer's protocol for One-Glo luciferase reagent. The plates were removed from the incubator and allowed to equilibrate to room temperature for 30 min. Forty microliters of One-Glo reagent (equilibrated to room temperature) was added per well using the Combi. The plates were mixed on an orbital shaker for 3 min. Luminescence was read on the BMG Pherastar multiplate reader (Cary, N.C.) using the luminescence protocol (1 sec interval).
The dose-response data were analyzed in Genedata Screener using 4PL nonlinear regression model. Raw luminescence counts as well as normalized values were used for data analysis.

Cc1cnc2c(c1)S(=O)(=O)N(Cc1cc([C@@H](CC(=O)O)c3ccn4c(C(F)(F)F)nnc4c3C)ccc1Cl)CC1CCCCN21 (stereo in doubt) [Example 90, (*R)-3-(4-Chloro-3-(((*S)-3-methyl-5,5-dioxido-7,7a,8,9,10,11-hexahydro-6H-dipyrido[2,1-d:2′,3′-f][1,2,5]thiadiazepin-6-yl)methyl)phenyl)-3-(8-methyl-3-(trifluoromethyl)-[1,2,4]triazolo[4,3-a]pyridine-7-yl)propanoic Acid]
EC50: 0.0042 µM

Cc1cnc2c(c1)S(=O)(=O)N(Cc1cc([C@H](CC(=O)O)c3ccn4c(C(F)F)nnc4c3C)ccc1C)C[C@@H]1CCCCN21 (stereo in doubt) [Example 500, (*S)-3-(3-(Difluoromethyl)-8-methyl-[1,2,4]triazolo[4,3-a]pyridin-7-yl)-3-(4-methyl-3-(((*S)-3-methyl-5,5-dioxido-7,7a,8,9,10,11-hexahydro-6H-dipyrido[2,1-d:2′,3′-f][1,2,5]thiadiazepin-6-yl)methyl)phenyl)propanoic Acid]
EC50: 0.00655 µM

Cc1ccc([C@H](CC(=O)O)c2ccn3c(C(F)(F)F)nnc3c2C)cc1CN1CC2(CCOCC2)Oc2ncc(F)cc2S1(=O)=O (single isomer, unassigned) [Example 414, (*S)-3-(3-((8′-fluoro-1′,1′-dioxido-2,3,5,6-tetrahydrospiro[pyran-4,4′-pyrido[2,3-b][1,4,5]oxathiazepin]-2′(3′H)-yl)methyl)-4-methylphenyl)-3-(8-methyl-3-(trifluoromethyl)-[1,2,4]triazolo[4,3-a]pyridin-7-yl)propanoic Acid]
EC50: 0.011 µM

CCn1nnc2c(C)c(C(CC(=O)O)c3ccc(C)c(CN4CC5(COC5)Oc5ccccc5S4(=O)=O)n3)ccc21 (racemic) [Example 237, (R 5)-3-(6-((1,1-Dioxidospiro[benzo[b][1,4,5]oxathiazepine-4,3′-oxetan]-2(3H)-yl)methyl)-5-methylpyridin-2-yl)-3-(1-ethyl-4-methyl-1H-benzo[d][1,2,3]triazol-5-yl)propanoic Acid]
EC50: 0.019 µM

Cc1ccc([C@H](c2ccn3c(C(F)F)nnc3c2C)C(C)(C)C(=O)O)cc1CN1CC2(CC2)Oc2ncccc2S1(=O)=O (single isomer, unassigned) [Example 568, (*R)-3-(3-(Difluoromethyl)-8-methyl-[1,2,4]triazolo[4,3-a]pyridin-7-yl)-3-(3-((1′,1′-dioxidospiro[cyclopropane-1,4′-pyrido[2,3-b][1,4,5]oxathiazepin]-2′(3′H)-yl)methyl)-4-methylphenyl)-2,2-dimethylpropanoic Acid]
EC50: 0.192 µM

CCCCNc1ccc2c(n1)OC1(CC1)CN(Cc1cc([C@H](CC(=O)O)c3ccn4c(C(F)(F)F)nnc4c3C)ccc1C)S2(=O)=O (single isomer, unassigned) [Example 113, (*S)-3-(3-((7′-(Butylamino)-1′,1′-dioxidospiro[cyclopropane-1,4′-pyrido[2,3-b][1,4,5]oxathiazepin]-2′(3′H)-yl)methyl)-4-methylphenyl)-3-(8-methyl-3-(trifluoromethyl)-[1,2,4[triazolo[4,3-a]pyridine-7-yl)propanoic Acid]
EC50: 0.49 µM

CCn1nnc2c(C)c(C(CC(=O)O)c3ccc(C)c(CN4CC(C)(C)Oc5ccccc5S4(=O)=O)c3)ccc21 (racemic) [Example 151, (R/S)-3-(3-((4,4-Dimethyl-1,1-dioxido-3,4-dihydro-2H-benzo[b][1,4,5]oxathiazepin-2-yl)methyl)-4-methylphenyl)-3-(1-ethyl-4-methyl-1H-benzo[d][1,2,3]triazol-5-yl)propanoic Acid]
EC50: 0.01 µM

CCn1nnc2c(C)c([C@@H](CC(=O)O)c3ccc(C)c(CN4C[C@@H]5CCCCN5c5ncccc5S4(=O)=O)c3)ccc21 (single isomer, unassigned) [Example 142, (*S)-3-(3-(((*S)-5,5-Dioxido-7,7a,8,9,10,11-hexahydro-6H-dipyrido[2,1-d:2′,3′-f][1,2,5]thiadiazepin-6-yl)methyl)-4-methylphenyl)-3-(1-ethyl-4-methyl-1H-benzo[d][1,2,3]triazol-5-yl)propanoic Acid]
EC50: 0.0011 µM

Cc1ccc([C@H](CC(=O)O)c2ccn3c(C(F)F)nnc3c2C)cc1CN1C[C@H]2CCCCN2c2ncc(C#N)cc2S1(=O)=O (relative stereo) [Example 32, (*S)-3-(3-(((*R)-3-Cyano-5,5-dioxido-7,7a,8,9,10,11-hexahydro-6H-dipyrido[2,1-d:2′,3′-f][1,2,5]thiadiazepin-6-yl)methyl)-4-methylphenyl)-3-(3-(difluoromethyl)-8-methyl-[1,2,4]triazolo[4,3-a]pyridin-7-yl)propanoic Acid]
EC50: 0.0136 µM

Cc1ccc([C@H](CC(=O)O)c2ccc3c(nnn3C3CC3)c2C)cc1CN1C[C@]2(C)CCCN2c2ncccc2S1(=O)=O (relative stereo) [Example 219, (*S)-3-(1-Cyclopropyl-4-methyl-1H-benzo[d][1,2,3]triazol-5-yl)-3-(4-methyl-3-(((*S)-7a-methyl-5,5-dioxido-7a,8,9,10-tetrahydropyrido[2,3-f]pyrrolo[2,1-d][1,2,5]thiadiazepin-6(7H)-yl)methyl)phenyl)propanoic Acid]
EC50: 0.0045 µM

Cc1cnc2c(c1)S(=O)(=O)N(Cc1cc([C@@H](c3ccn4c(C(F)(F)F)nnc4c3C)C(C)C(=O)O)ccc1C)C[C@@H]1CCCCN21 (relative stereo) [Example 514, (3*S)-2-Methyl-3-(4-methyl-3-(((*S)-3-methyl-5,5-dioxido-7,7a,8,9,10,11-hexahydro-6H-dipyrido[2,1-d:2′,3′-f][1,2,5]thiadiazepin-6-yl)methyl)phenyl)-3-(8-methyl-3-(trifluoromethyl)-[1,2,4]triazolo[4,3-a]pyridin-7-yl)propanoic Acid]
EC50: 0.0017 µM

Cc1ccc([C@H](CC(=O)O)c2ccn3c(C(F)(F)F)nnc3c2C)cc1CN1CC2(CC2)Oc2ccc(F)cc2S1(=O)=O (single isomer, unassigned) [Example 98, (*S)-3-(3-((8-Fluoro-1,1-dioxidospiro[benzo[b][1,4,5]oxathiazepin]-4,1′-cyclopropan]-2(3H)-yl)methyl)-4-methylphenyl)-3-(8-methyl-3-(trifluoromethyl)-[1,2,4]triazolo[4,3-a]pyridin-7-yl)propanoic Acid]
EC50: 0.016 µM

CCn1nnc2c(C)c([C@H](c3ccc(C)c(CN4CC5(CCOCC5)Oc5ncccc5S4(=O)=O)c3)C(C)(C)C(=O)O)ccc21 (single isomer, unassigned) [Example 15, (*S)-3-(3-((1′,1′-Dioxido-2,3,5,6-tetrahydrospiro[pyran-4,4′-pyrido[2,3-b][1,4,5]oxathiazepin]-2′(3′H)-yl)methyl)-4-methylphenyl)-3-(1-ethyl-4-methyl-1H-benzo[d][1,2,3]triazol-5-yl)-2,2-dimethylpropanoic Acid]
EC50: 0.0003 µM
